Assay results published in the RepoRT retention time repository (doi:10.1016/j.scitotenv.2015.08.078).

Test: RP, Waters ACQUITY UPLC BEH C18, 100 × 2.1 mm, 1.7 µm, 0.3 mL/min, estimated dead time 0.73 min; A: water + 0.1% formic acid, pH 3; B: methanol + 0.1% formic acid, pH 3; gradient (min/%B) 0/10 14/90 16/90 18/10
Details: stereoisomer not certain

Structure (SMILES) | LC retention time [min]
CCS(=O)CCSP(=O)(OC)OC (stereo not drawn) [Oxydemeton-methyl] | 3.15
CCOc1cc(Oc2ccc(C(F)(F)F)cc2Cl)ccc1[N+](=O)[O-] [Oxyfluorfen] | 13.8
CCCCC1C(=O)N(c2ccccc2)N(c2ccc(O)cc2)C1=O (stereo not drawn) [Oxyphenylbutazone] | 9.97
CN(C)C1C(=O)C(C(N)=O)=C(O)C2(O)C(=O)C3=C(O)c4c(O)cccc4C(C)(O)C3C(O)C12 (stereo not drawn) [Oxytetracycline] | 3.94
CC(C)(C)C(O)C(Cc1ccc(Cl)cc1)n1cncn1 (stereo not drawn) [Paclobutrazol] | 10.8
COc1ccnc(CS(=O)c2nc3ccc(OC(F)F)cc3[nH]2)c1OC (stereo not drawn) [Pantoprazol] | 7.67
COP(=S)(OC)Oc1ccc([N+](=O)[O-])cc1 [Parathion-methyl] | 9.6
CCOP(=S)(OCC)Oc1ccc([N+](=O)[O-])cc1 [Parathion] | 11.3
Fc1ccc(C2CCNCC2COc2ccc3c(c2)OCO3)cc1 (stereo not drawn) [Paroxetine] | 9.22
CCCCN(CC)C(=O)SCCC [Pebulate (Tillam)] | 12.1
CCn1cc(C(=O)O)c(=O)c2cc(F)c(N3CCN(C)CC3)cc21 [Pefloxacin] | 4.09
CCCC(Cn1cncn1)c1ccc(Cl)cc1Cl (stereo not drawn) [Penconazole] | 11.6
O=C(Nc1ccccc1)N(Cc1ccc(Cl)cc1)C1CCCC1 [Pencycuron] | 12.2
CCC(CC)Nc1c([N+](=O)[O-])cc(C)c(C)c1[N+](=O)[O-] [Pendimethalin] | 14.2
C=C(C)C1(O)OC(=O)C=C1OC (stereo not drawn) [Penicillic acid] | 3.78
CC1(C)SC2C(NC(=O)Cc3ccccc3)C(=O)N2C1C(=O)O (stereo not drawn) [Penicillin G] | 8.55
COC(=O)Nc1cccc(OC(=O)Nc2cccc(C)c2)c1 [Phenmedipham] | 9.52
CCCCC1C(=O)N(c2ccccc2)N(c2ccccc2)C1=O [Phenylbutazone] | 11.6
CCOP(=S)(OCC)SCS(=O)(=O)CC [Phorate sulfone] | 8.76
CCOP(=S)(OCC)SCn1c(=O)oc2cc(Cl)ccc21 [Phosalone] | 12
COP(=S)(OC)SCN1C(=O)c2ccccc2C1=O [Phosmet] | 9.52
CCOP(=S)(OCC)ON=C(C#N)c1ccccc1 [Phoxim] | 11.9

Structure (SMILES) | LC retention time [min]
CCn1cc(C(=O)O)c(=O)c2cnc(N3CCNCC3)nc21 [Pipemidic acid] | 3.48
CCCOP(=S)(OCCC)SCC(=O)N1CCCCC1C (stereo not drawn) [Piperophos] | 12.3
Cc1nc(N(C)C)nc(OC(=O)N(C)C)c1C [Pirimicarb] | 5.67
CCOP(=S)(OCC)Oc1cc(C)nc(N(CC)CC)n1 [Pirimiphos-ethyl] | 13
CCN(CC)c1nc(C)cc(OP(=S)(OC)OC)n1 [Pirimiphos-methyl] | 12.4
CCC(C)C(=O)OC1CC(O)C=C2C=CC(C)C(CCC(O)CC(O)CC(=O)O)C21 (stereo not drawn) [Pravastatin] | 7.96
O=C(C1CCCCC1)N1CC(=O)N2CCc3ccccc3C2C1 (stereo not drawn) [Praziquantel] | 10.1
CC(=O)OCC(=O)C1(O)CCC2C3CCC4=CC(=O)C=CC4(C)C3C(O)CC21C (stereo not drawn) [Prednisolone 21-acetate] | 9.54
CCCOCCN(C(=O)CCl)c1c(CC)cccc1CC [Pretilachlor] | 12.5
COC(=O)c1ccccc1S(=O)(=O)NC(=O)Nc1nc(OC(F)F)cc(OC(F)F)n1 [Primisulfuron-methyl] | 8.86
CCN(CC)CCOC(=O)c1ccc(N)cc1 [Procaine] | 2.19
CCCSP(=O)(OCC)Oc1ccc(Br)cc1Cl (stereo not drawn) [Profenofos] | 12.7
CNC(=O)Oc1cc(C)cc(C(C)C)c1 [Promecarb] | 10.3
CC(CN1c2ccccc2Sc2ccccc21)N(C)C (stereo not drawn) [Promethazine] | 9.06
CSc1nc(NC(C)C)nc(NC(C)C)n1 [Prometryn] | 10.8
CC(C)N(C(=O)CCl)c1ccccc1 [Propachlor] | 8.99
CCCOC(=O)NCCCN(C)C [Propamocarb] | 2.28
CCC(=O)Nc1ccc(Cl)c(Cl)c1 [Propanil] | 10.3
CC(C)=NOCCOC(=O)C(C)Oc1ccc(Oc2cnc3cc(Cl)ccc3n2)cc1 (stereo not drawn) [Propaquizafop] | 12.9
CC(C)Nc1nc(Cl)nc(NC(C)C)n1 [Propazine] | 9.88
CCNP(=S)(OC)OC(C)=CC(=O)OC(C)C (stereo not drawn) [Propetamphos] | 10.6
CCCC1COC(Cn2cncn2)(c2ccc(Cl)cc2Cl)O1 (stereo not drawn) [Propiconazole] | 12.5

Structure (SMILES) | LC retention time [min]
CNC(=O)Oc1ccccc1OC(C)C [Propoxur] | 7.36
C#CC(C)(C)NC(=O)c1cc(Cl)cc(Cl)c1 [Propyzamide] | 10.3
CCCN(CCC)C(=O)SCc1ccccc1 [Prosulfocarb] | 12.6
CC1=NNC(=O)N(N=Cc2cccnc2)C1 [Pymetrozine] | 2.25
CCCSP(=O)(OCC)Oc1cnn(-c2ccc(Cl)cc2)c1 (stereo not drawn) [Pyraclofos] | 12
CCOC(=O)c1cn2nc(OP(=S)(OCC)OCC)cc2nc1C [Pyrazophos] | 11.9
CCOC(=O)c1cnn(C)c1S(=O)(=O)NC(=O)Nc1nc(OC)cc(OC)n1 [Pyrazosulfuron-ethyl] | 7.91
C=CC=CCC1=C(C)C(OC(=O)C2C(C=C(C)C)C2(C)C)CC1=O (stereo not drawn) [Pyrethrin I] | 13.7
CC(C)(C)c1ccc(CSc2cnn(C(C)(C)C)c(=O)c2Cl)cc1 [Pyridaben] | 14
CCOP(=S)(OCC)Oc1ccc(=O)n(-c2ccccc2)n1 [Pyridaphenthion] | 12.1
CCCCCCCCSC(=O)Oc1cc(Cl)nnc1-c1ccccc1 [Pyridate] | 14.3
CCc1nc(N)nc(N)c1-c1ccc(Cl)cc1 [Pyrimethamine] | 7.2
Cc1cc(C)nc(Nc2ccccc2)n1 [Pyrimethanil] | 9.86
CC(COc1ccc(Oc2ccccc2)cc1)Oc1ccccn1 (stereo not drawn) [Pyriproxyfen] | 14
O=C1CCc2cccc3c2N1CC3 [Pyroquilon] | 7.09
CCOP(=S)(OCC)Oc1cnc2ccccc2n1 [Quinalphos] | 11.3
Cc1cnc2c(C(=O)O)c(Cl)ccc2c1 [Quinmerac] | 3.44
COC(=O)C(C)Oc1ccc(Oc2cnc3cc(Cl)ccc3n2)cc1 (stereo not drawn) [Quizalofop methyl] | 12.1
CC(CCc1ccc(O)cc1)NCC(O)c1ccc(O)cc1 (stereo not drawn) [Ractopamine] | 4.5
COC(=O)C1C2CC3c4[nH]c5cc(OC)ccc5c4CCN3CC2CC(OC(=O)c2cc(OC)c(OC)c(OC)c2)C1OC (stereo not drawn) [Reserpine] | 8.76
CCS(=O)(=O)c1cccnc1S(=O)(=O)NC(=O)Nc1nc(OC)cc(OC)n1 [Rimsulfuron] | 5.84
NC(=NN=Cc1ccc(Cl)cc1)NN=Cc1ccc(Cl)cc1 [Robenidine] | 10.9

Structure (SMILES) | LC retention time [min]
Cn1c([N+](=O)[O-])cnc1COC(N)=O [Ronidazole] | 1.79
CCC1OC(=O)C(C)C(OC2CC(C)(OC)C(O)C(C)O2)C(C)C(OC2OC(C)CC(N(C)C)C2O)C(C)(O)CC(C)C(=NOCOCCOC)C(C)C(O)C1(C)O (stereo not drawn) [Roxithromycin] | 10.7
CC(C)(C)NCC(O)c1ccc(O)c(CO)c1 (stereo not drawn) [Salbutamol] | 2.03
O=C(O)c1ccccc1O [Salicylic acid] | 4.4
CCC(C(=O)O)C1CCC(C)C(C(C)C(O)C(C)C(=O)C(CC)C2OC3(C=CC(O)C4(CCC(C)(C5CCC(O)(CC)C(C)O5)O4)O3)C(C)CC2C)O1 (stereo not drawn) [Salinomycin] | 15.9
O=C(O)c1cn(-c2ccc(F)cc2)c2cc(N3CCNCC3)c(F)cc2c1=O [Sarafloxacin] | 5.12
CCCC(=NOCC)C1C(=O)CC(CC(C)SCC)CC1=O (stereo not drawn) [Sethoxydim] | 11.8
CC1CCCCC1NC(=O)Nc1ccccc1 (stereo not drawn) [Siduron A] | 9.88
CCNc1nc(Cl)nc(NCC)n1 [Simazine] | 7.91
CCNc1nc(NCC)nc(SC)n1 [Simetryn] | 8.78
CCC(C)(C)C(=O)OC1CC(C)C=C2C=CC(C)C(CCC3CC(O)CC(=O)O3)C21 (stereo not drawn) [Simvastatin] | 14.2
CCC1CCCC(OC2CCC(N(C)C)C(C)O2)C(C)C(=O)C2=CC3C(C=CC4CC(OC5OC(C)C(OC)C(OC)C5OC)CC43)C2CC(=O)O1 (stereo not drawn) [Spinosyn A] | 12
CCC1CCCC(OC2CCC(N(C)C)C(C)O2)C(C)C(=O)C2=CC3C(C=C(C)C4CC(OC5OC(C)C(OC)C(OC)C5OC)CC43)C2CC(=O)O1 (stereo not drawn) [Spinosyn D] | 12.5
CCCN(CC)CC1COC2(CCC(C(C)(C)C)CC2)O1 (stereo not drawn) [Spiroxamine] | 10
CC12Cc3cn[nH]c3CC1CCC1C2CCC2(C)C1CCC2(C)O (stereo not drawn) [Stanozolol] | 12
Nc1ccc(S(=O)(=O)NC(=O)c2ccccc2)cc1 [Sulfabenzamide] | 3
Nc1ccc(S(=O)(=O)Nc2ncccn2)cc1 [Sulfadiazine] | 2.09
COc1ncnc(NS(=O)(=O)c2ccc(N)cc2)c1OC [Sulfadoxine] | 5
Cc1ccnc(NS(=O)(=O)c2ccc(N)cc2)n1 [Sulfamerazine] | 2.75
COc1cnc(NS(=O)(=O)c2ccc(N)cc2)nc1 [Sulfameter] | 3.2
Cc1cc(C)nc(NS(=O)(=O)c2ccc(N)cc2)n1 [Sulfamethazine] | 3.59
Cc1nnc(NS(=O)(=O)c2ccc(N)cc2)s1 [Sulfamethiazole] | 3.19
